Test results as given in paper PMC9545781 (British Journal of Clinical Pharmacology, 2022).
Several values for one entry are separate records, joined by “and”; a condition that tells them apart may be missing. Equal values may be shown once. Entries after “also recorded” stand apart in the source; their conditions may differ. Read-outs that look alike come from different tables or passages of the source.

Assays:
[1] = test system: experimental autoimmune encephalomyelitis mouse model; details: cited from earlier work
[2] = test system: TSPO; details: cited from earlier work
[3] = test system: γ‐aminobutyric acid‐a receptor; details: cited from earlier work
[4] = Open-label clinical pharmacokinetic study of oral XBD173 and etifoxine in healthy volunteers (plasma LC-MSMS); format: in vivo, human; details: for AUC0‐4 h / Cmax / Tmax / AUC: 50 mg etifoxine single oral dose; for AUC: read-out: AUC0‐4 h
Method: This was a single centre, open‐label study enrolling 4 adult healthy volunteers (aged 35–65 y) irrespective of rs6971 genotype. Detailed inclusion and exclusion criteria are shown in the supplementary information. […] As a precaution, therefore, a long washout period was chosen. The first dose was taken at the clinical research facility and the participant was monitored for 4 hours. Subsequent doses were taken at home by the participant. On day 7, the participant returned for a final assessment. […] The PI of the study was Paul M. Matthews (DPhil, FRCP, FMedSci) who is an author on the manuscript.
Plasma samples for pharmacokinetic analysis were obtained on day 1 at 0.5, 1, 2, 3, 4 hours following the first dose. […] Plasma samples were stored at −20°C or lower until analysis. Plasma samples (25 μL) were prepared for analysis by protein precipitation with acetonitrile containing internal standard (tolbutamide; 200 μL) followed by mixing (150 rpm, 15 min) and centrifugation (1500 g, 15 min). The supernatant (50) μL was diluted with water (100 μL) and mixed (100 rpm, 15 min). […] Injection volume was 1 μL.

[5] = Plasma protein binding by equilibrium dialysis; details: plasma spiked at 1 μM, 37°C, 4 hours, mean (SEM)
Method: Plasma protein binding was measured by equilibrium dialysis using 96‐well plate blocks with 2 compartments separated by a vertical cylinder of dialysis membrane (molecular weight cut off ~8000 Da; ThermoFisher Scientific). […] The unit was covered and incubated at 37°C on an orbital shaker for 4 hours. After incubation, samples from both plasma (bound) chamber and the buffer (free) chamber were taken and matrix‐matched by addition of the alternative blank matrix. Acetonitrile containing internal standard was added to all samples. […] The ratio of responses in free to bound samples equates to the free fraction.

[6] = Solubility limitation of etifoxine in binding assay; format: physicochemical; details: assay buffer pH 7.4
Method: The specific binding component was determined using unlabelled PK11195 (10µM). Following incubation, assays were terminated via filtration through Whatman GF/B filters, followed by 3 x 1 ml washes with ice-cold wash buffer (50mM Tris Base, 1.4mM MgCl2, pH 7.4, 4 °C). Whatman GF/B filters were pre-incubated with 0.05% polyethyleneimine (60min) before filtration. Scintillation fluid (4ml/vial, Perkin Elmer Ultima Gold MV) was added and vials counted on a Perkin Elmer Tricarb 2900 liquid scintillation counter. For each donor, each point was performed in quadruplicate. Ki (nM) values were determined using GraphPad Prism 8.1 software (GraphPad Software Inc, USA).

[7] = molecular target: TSPO (Homo sapiens, UniProt P30536); assay: Competition radioligand binding with [3H]PK11195 in human brain membranes
Method: The assay was terminated via filtration through Whatman GF/B filters. Scintillation fluid (4 mL/vial, Perkin Elmer Ultima‐Gold MV) was added and vials counted on a Perkin Elmer Tricarb 2900 liquid scintillation counter.
Tissue was obtained from 8 donors from the UK Multiple Sclerosis (MS) Tissue Bank at Imperial College. […] The tissue was stored at -80 °C until use.
Tissue blocks were homogenised in 10 times weight for volume (w/v) buffer (0.32mM sucrose, 5mM Tris base, 1mM MgCl2, pH 7.4, 4 °C). Homogenates were centrifuged (32,000g, 20min, 4 °C) followed by removal of the supernatant. Pellets were re-suspended in at least 10 times w/v buffer (50mM Tris base, 1mM MgCl2, pH 7.4, 4 °C) followed by two washes by centrifugation (32,000g, 20min, 4 °C). Membranes were suspended in buffer (50mM Tris base, 1mM MgCl2, pH 7.4, 4 °C) at a protein concentration of approximately 4 mg protein/ml and aliquots were stored at -80 °C until use.
All competition data were analysed using the iterative non-linear regression curve fitting software supplied with GraphPad Prism 8.1. A single site competition model was fitted to the data using the least squares algorithm. […] Data are expressed as the mean ± standard error of the mean (SEM). The Student’s t-test (GraphPad Prism 8.1) was used to determine statistical significance.

[8] = molecular target: γ‐aminobutyric acid‐a receptor; details: rodent brain; cited from earlier work
[9] = human, plasma, po, 50 mg, 50mg etifoxine single oral dose, Mean (SEM)
[10] = human, plasma, po, 50 mg, 50mg etifoxine single oral dose, participant 2
[11] = human, plasma, po, 50 mg, 50mg etifoxine single oral dose, participant 3
[12] = human, plasma, po, 50 mg, 50mg etifoxine single oral dose, participant 4
[13] = human, plasma, po, 50 mg, 50mg etifoxine single oral dose, participant 1
[14] = human, plasma, po, 50 mg, Median of 4 participants
[15] = human, plasma, po, 50 mg, participant 1
[16] = human, plasma, po, 50 mg, participant 2
[17] = human, plasma, po, 50 mg, participant 3
[18] = human, plasma, po, 50 mg, participant 4

Sequence of TSPO (Homo sapiens, UniProt P30536) (P30536 2-169): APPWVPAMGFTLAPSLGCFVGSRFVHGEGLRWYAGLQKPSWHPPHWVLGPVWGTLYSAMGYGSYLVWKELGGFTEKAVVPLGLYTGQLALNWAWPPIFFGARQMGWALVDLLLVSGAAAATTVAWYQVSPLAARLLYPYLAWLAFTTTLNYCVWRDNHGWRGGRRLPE

## CCNC1=Nc2ccc(Cl)cc2C(C)(c2ccccc2)O1 (centres unmarked) [etifoxine]
[1]
  Clinical scores: improved clinical scores
[2]; rodent heart
  Binding affinity for TSPO: 22.5 µM
[2]; rodent kidney
  Binding affinity for TSPO: 14 µM and 9 µM
[3]
  Concentration above which pharmacodynamic actions at the receptor are elicited: above 1 μM
[4]; plasma, Max of 4 participants
  AUC0‐4 h: 83 ng·h/mL
[4]; plasma, Min of 4 participants
  AUC0‐4 h: 59 ng·h/mL
[4]; 4 healthy volunteers, XBD173 90 mg once daily 7 days and etifoxine 50 mg TDS 7 days
  Adverse events: No adverse events were reported
[4]; etifoxine 50 mg TDS for 7 days, day 7 vs day 1 plasma concentration
  Accumulation after multiple doses: did not find evidence for significant etifoxine accumulation; also recorded: did not find evidence for drug accumulation
[4]; human, plasma, po, 50 mg, 50mg etifoxine single oral dose, 30 mins, participant 2
  concentration at 30 min: 4 ng/mL
[4]; [9]
  concentration at 60 min: 8.2 ng/mL
  concentration at 120 min: 29.8 ng/mL
  concentration at 180 min: 22.9 ng/mL
  concentration at 240 min: 18 ng/mL
[4]; [10]
  concentration at 60 min: 15.9 ng/mL
  concentration at 120 min: 33.4 ng/mL
  concentration at 180 min: 12.3 ng/mL
  concentration at 240 min: 9.2 ng/mL
[4]; [11]
  concentration at 60 min: 6.2 ng/mL
  concentration at 120 min: 39.4 ng/mL
  concentration at 180 min: 27.1 ng/mL
  concentration at 240 min: 20.1 ng/mL
[4]; [12]
  concentration at 60 min: 2.4 ng/mL
  concentration at 120 min: 30.7 ng/mL
  concentration at 180 min: 27.9 ng/mL
  concentration at 240 min: 20.1 ng/mL
[4]; [13]
  concentration at 120 min: 15.5 ng/mL
  concentration at 180 min: 24.2 ng/mL
  concentration at 240 min: 22.7 ng/mL
[4]; [14]
  Cmax: 32 ng/mL
  Tmax: 2 h
[4]; [15]
  Cmax: 24 ng/mL
  Tmax: 3 h
[4]; [16]
  Cmax: 33 ng/mL
  Tmax: 2 h
[4]; [17]
  Cmax: 39 ng/mL
  Tmax: 2 h
[4]; [18]
  Cmax: 31 ng/mL
  Tmax: 2 h
[4]; human, plasma, po, 50 mg, plasma, Median of 4 participants
  AUC: 68 ng·h/mL
[4]; human, plasma, po, 50 mg, plasma, participant 1
  AUC: 59 ng·h/mL
[4]; human, plasma, po, 50 mg, plasma, participant 2
  AUC: 64 ng·h/mL
[4]; human, plasma, po, 50 mg, plasma, participant 3
  AUC: 83 ng·h/mL
[4]; human, plasma, po, 50 mg, plasma, participant 4
  AUC: 71 ng·h/mL
[5]
  Fraction in plasma bound: 99.71%
  Plasma free fraction: 0.29%
[6]
  Highest concentration that could be studied due to limitations of solubility: ≤ 30 µM
[7]; read-out: Affinity of etifoxine for TSPO estimated here, value used for the occupancy estimate
  Ki: 7.6 µM
[7]; read-out: Estimated Ki for the whole population, single site binding curve, human brain tissue, 8 donors (4 HABs, 4 LABs), 95% CI 4.5–14.6 μM, competition curve did not fully plateau
  Ki: 7.8 µM and ~7.8 µM
[7]; read-out: Mean Ki, human brain tissue, high affinity binders (HABs), n = 4, [3H]PK11195 0.3 nM
  Ki: 7.6 ± 2.2 µM
[8]
  IC50: ~6.7 µM
